Earlier results on 124 compounds are cited in the CATMoS acute toxicity set (Mansouri et al. 2021).

Molecules are shown by their SMILES. Values joined by “and” are separate entries in the source; they are usually repeats but may differ in a detail not shown here. Equal entries are not always repeated.

This series is described as follows: rat acute oral toxicity. As to conditions: in vivo.
As a reminder, the LD50 is the dose expected to kill half of the subjects tested. Take `CNC(=O)Oc1cc(C)ccc1C(C)C`: the LD50 was 500 mg/kg. Take `COc1ccc2c(c1)OC(C)(C)C(c1ccccc1)=C2c1ccc(OCCN)cc1`: the LD50 was 1500 mg/kg. For the compound `COc1ccc(N)cc1N`, the LD50 was 460 mg/kg. For the compound `NC(=O)Nc1cccc2c3c([nH]c12)CCCC3`, the LD50 is 2770 mg/kg. As for `CC(CN1C(=O)N(CC2CO2)C(C)(C)C1=O)OCC1CO1` (centres undefined), the LD50 was 1800 mg/kg. Consider `CSCCC(O)C(=O)O` (centres undefined), for which the median lethal dose (LD50) is 3480 mg/kg. Take `CCCCCCCCOC(=O)C1=C(C)NC(C)=C(C(=O)NC2CC2)C1c1ccccc1[N+](=O)[O-]` (centres undefined): the LD50 is 50 mg/kg. With `COC(=O)C1=C(C)NC(C)=C(C(=O)O[C@H]2CCN(Cc3ccccc3)C2)[C@H]1c1cccc([N+](=O)[O-])c1`, the LD50 was 105 mg/kg. With `CCCCOP(=O)(O)OCCCC`, the 50% lethal dose (LD50) is 3200 mg/kg and 3520 mg/kg. For the compound `CCN(CC)c1ccc(N)c(C)c1`, the LD50 is 200 mg/kg. Consider `CCN(CCC#N)c1ccccc1`, for which the LD50 was 4840 mg/kg. In the case of `COC1=CC(=O)OC(C=CC2=CCCC=C2)C1` (centres undefined), the LD50 is 16000 mg/kg. Consider `O=[N+]([O-])c1cc([N+](=O)[O-])c(F)cc1F`, for which the LD50 is 50 mg/kg.

Regarding `C=CC(C)CCCC(C)(C)O` (centres undefined), the LD50 was 3600 mg/kg. As to `CN(CCCCCCN(C)C(=O)Oc1ccc[n+](C)c1)C(=O)Oc1ccc[n+](C)c1`, the LD50 is 10 mg/kg. As to `COC(=O)c1c(Cl)c(Cl)c(C(=O)SC)c(Cl)c1Cl`, the LD50 was 3300 mg/kg. On to `CCC(Cl)(Cl)Cl`, for which the LD50 is 7460 mg/kg. On to `Nc1ccc(-c2ccc(-n3nc4ccc5c(S(=O)(=O)O)cc(S(=O)(=O)O)cc5c4n3)cc2)cc1S(=O)(=O)O`, for which the LD50 is 9500 mg/kg. As to `FC(F)(F)c1nc2c(Cl)cc(Br)cc2[nH]1`, the LD50 was 6.4 mg/kg.

On to `O=S(=O)(O)C(F)(F)C(F)(F)C(F)(F)C(F)(F)C(F)(F)C(F)(F)C(F)(F)C(F)(F)F`, for which the LD50 is 251 mg/kg and 154 mg/kg. `O=C1C(Cl)C2(Cl)C3C(Cl)OC(Cl)C3C1(Cl)C2(Cl)Cl` (centres undefined): the LD50 was 7 mg/kg. As for `COP(=S)(Oc1ccc([N+](=O)[O-])cc1)OC(C)C` (centres undefined), the LD50 was 5 mg/kg. For `CC(C)CCOC(CO)CC(C)C` (centres undefined), the LD50 was 5410 mg/kg.

`Nc1ccc(S(=O)(=O)O)c2cccc(O)c12`: the LD50 was 6210 mg/kg.

`NC(=O)NC(=O)Cc1ccccc1`: the LD50 was 1600 mg/kg. As for `CC(C)Cc1cccc2c(CC(=O)O)cccc12`, the LD50 is 600 mg/kg. For the compound `CN1C(=O)CN=C(c2ccccc2F)c2cc(Cl)ccc21`, the LD50 was 1740 mg/kg.

Regarding `CC1CC(C)(C)OB(OC(C)CC(C)(C)OB2OC(C)CC(C)(C)O2)O1` (centres undefined), the LD50 is 4720 mg/kg. Consider `CCCOc1ccc(C=CC(=S)OCC)cc1OC`, for which the LD50 is 1010 mg/kg. Consider `NCc1cc(O)no1`, for which the LD50 was 45 mg/kg. In the case of `Oc1ccc(Cl)c(O)c1`, the LD50 was 369 mg/kg. Take `C1CNCCN1`: the LD50 is 4900 mg/kg. In the case of `C=C(C)C1CC=C(C)C(=O)C1` (racemic), the median lethal dose (LD50) is 1640 mg/kg. For the compound `O=C1CCC2CCCCC2O1` (centres undefined), the LD50 was 3900 mg/kg.

For `CCCOCCN(C(=O)CCl)c1c(CC)cccc1CC`, the LD50 was 2200 mg/kg. Take `O=C(OCC1(COC(=O)c2cccnc2)CCCC(COC(=O)c2cccnc2)(COC(=O)c2cccnc2)C1O)c1cccnc1`: the LD50 is 10000 mg/kg. Take `N#CC(Cl)=C(Cl)Cl`: the LD50 is 62.5 mg/kg. For `NNS(=O)(=O)c1ccc(Oc2ccc(S(=O)(=O)NN)cc2)cc1`, the LD50 is 2300 mg/kg. `CCCCC[C@H](O)/C=C/[C@@H]1[C@@H](C/C=C\CCCC(=O)O)[C@@H](O)C[C@H]1O`: the LD50 was 1170 mg/kg. With `COc1ccc2c(c1)c1c3n2CCN(C)C3=NCC1`, the LD50 is 1400 mg/kg. For `C=CCN1CC[C@]23CCCC[C@H]2[C@H]1Cc1ccc(O)cc13`, the LD50 was 949 mg/kg. `COc1c(C)ccc(C)c1N(COC(C)C)C(=O)CCl`: the LD50 was 1730 mg/kg.

For the compound `CCOP(=S)(OCC)Oc1cc(Cl)c(I)cc1Cl`, the LD50 was 140 mg/kg.

Regarding `CN(C)CCC=C1c2ccccc2CCc2ccccc21`, the LD50 was 320 mg/kg. Consider `CCC(C)OC(C)=O` (centres undefined), for which the LD50 is 3200 mg/kg. As to `Oc1c(Cl)cc(Cl)c(Cl)c1Cl`, the LD50 was 140 mg/kg. As to `CC(C)(C)C(O)/C(=C\c1ccc(Cl)cc1)n1cncn1` (centres undefined), the LD50 was 1790 mg/kg.

As for `CC1(C)C(C(=O)OCc2coc(Cc3ccccc3)c2)C1(C)C`, the LD50 was 141 mg/kg. Regarding `Nc1ccc2ccccc2c1`, the LD50 was 727 mg/kg. For the compound `CC(c1ccccc1)C(C)(C)N` (centres undefined), the LD50 is 180 mg/kg. In the case of `C/C(=N\O)C(=O)c1ccccc1`, the LD50 was 4240 mg/kg. As for `CCO[Si](CCl)(OCC)OCC`, the LD50 was 2400 mg/kg. Consider `CCCSP(=S)(OC)SCCC`, for which the LD50 was 16 mg/kg. On to `CC(C)=CCN(CC=C(C)C)CCC(C(N)=O)c1cccc2ccccc12` (centres undefined), for which the LD50 is 353 mg/kg.

As to `CC[N+](C)(CC)CCOC(=O)C(O)(c1ccccc1)C1CCCCC1` (centres undefined), the LD50 was 995 mg/kg. For `Clc1cc(Cl)c2nsnc2c1Cl`, the LD50 is 1620 mg/kg.

Regarding `FC(Cl)(C(Cl)(Cl)Cl)C(Cl)(Cl)Cl`, the LD50 was 500 mg/kg. Take `C=CCOc1ccccc1C(=O)N(CC)CC`: the LD50 is 325 mg/kg. For `CC1Cc2cc(C(=O)CCc3ccccc3)ccc2O1` (centres undefined), the LD50 was 2150 mg/kg. Take `Cc1ccccc1N(CCO)CCO`: the LD50 is 2200 mg/kg.

Turning to `N#CCCC[Si](Cl)(Cl)Cl`, the LD50 is 2830 mg/kg. As to `CCOc1ccccc1OCCN[C@H](C)Cc1ccc(OC)c(S(N)(=O)=O)c1`, the LD50 is 650 mg/kg. On to `CNC(=O)ON=C1CSCCS1`, for which the LD50 is 15 mg/kg. As for `CN1CCCC(=C(c2cccs2)c2cccs2)C1`, the LD50 is 10000 mg/kg. Consider `Cc1c(Cl)cc(-c2ccc(O)nn2)cc1Cl`, for which the LD50 was 12000 mg/kg. `Nc1ncnc2[nH]ncc12`: the LD50 is 141 mg/kg.

Consider `CCCN=C(C(OC)c1ccccc1)N1CCCCCC1` (centres undefined), for which the LD50 was 55 mg/kg. Consider `O=P(O)(O)CCCl`, for which the 50% lethal dose (LD50) is 2200 mg/kg. Take `COC(N)=O`: the LD50 is 2500 mg/kg. With `COc1cc(OC)cc(OCCO)c1`, the LD50 was 4050 mg/kg. For `O=S(=O)(O)c1ccc2c(/N=N\c3ccc(S(=O)(=O)O)c4ccccc34)c(O)c(S(=O)(=O)O)cc2c1`, the LD50 was 6000 mg/kg.

With `CNCC12CCC(c3ccccc31)c1ccccc12`, the LD50 is 700 mg/kg and 600 mg/kg. Consider `CCC(=O)C1(c2cccc(O)c2)CCN(C)CC1`, for which the LD50 is 215 mg/kg. As for `CCCCCCCCSC(=O)Oc1cc(Cl)nnc1-c1ccccc1`, the LD50 is 1970 mg/kg. Consider `NCC1CC2CCC1C2` (centres undefined), for which the LD50 is 1410 mg/kg.

Turning to `CC(=O)OCC(COC(C)=O)OC(C)=O`, the LD50 was 3000 mg/kg. For the compound `O=C(CCCN1CCC(n2c(=S)[nH]c3ccccc32)CC1)c1ccc(F)cc1`, the LD50 is 232 mg/kg. Take `CCN(CCO)CCn1c(Cc2ccccc2)nc2c1c(=O)n(C)c(=O)n2C`: the LD50 is 1140 mg/kg. For `CCCC(=O)N(C)C(=O)Oc1cc(C)cc(C(C)C)c1`, the LD50 was 1220 mg/kg. `CN(C)CCCN1c2ccccc2Sc2cccnc21`: the LD50 was 610 mg/kg.

Regarding `CCS(=O)CC(C)SP(=O)(OC)OC` (centres undefined), the LD50 is 89 mg/kg. With `CC12CCC(CC1=O)C2(C)C=O` (centres undefined), the LD50 is 3100 mg/kg.

`CC1(C)CC(N2C(C)(C)CC(N)CC2(C)C)CC(C)(C)N1`: the LD50 is 2170 mg/kg. Turning to `COB(OC)OC`, the LD50 was 6140 mg/kg. As for `C=CCOCC1CO1` (centres undefined), the LD50 was 1600 mg/kg.

Turning to `N#Cc1ccc2nc(C(F)(F)F)[nH]c2c1`, the LD50 was 4.41 mg/kg. Consider `Cc1cc(C(=O)c2ccccc2)ccc1N=Cc1cccc(OCCC(C)C)c1`, for which the LD50 is 2100 mg/kg. As for `CNC(=O)Oc1cc(C)cc(C(C)C)c1`, the LD50 is 35 mg/kg. Regarding `CC(C)Oc1ccccc1[N+](=O)[O-]`, the median lethal dose (LD50) is 2500 mg/kg. Regarding `CN(CO)C(=S)S`, the LD50 is 590 mg/kg.

In the case of `C1CNCCNC1`, the LD50 was 2830 mg/kg.

`c1ccc2c(c1)CCCC2C1=NCCN1` (centres undefined): the LD50 is 785 mg/kg. Turning to `NCCOS(N)(=O)=O`, the LD50 is 7460 mg/kg.

Consider `NCCCCN`, for which the LD50 is 463 mg/kg. For the compound `CC1(C)NC(=O)N(c2ccc([N+](=O)[O-])c(C(F)(F)F)c2)C1=O`, the LD50 is 195 mg/kg.

Regarding `Cc1ccc(C)c(CCNC(N)=O)c1`, the LD50 was 2300 mg/kg. Regarding `O=c1[nH]c2c(Cl)c(Cl)cc(Cl)c2o1`, the LD50 is 500 mg/kg. As to `Cc1ccccc1N=Nc1c(N)ccc2ccccc12`, the LD50 is 120 mg/kg. `CCO[Si](C)(C)OCC`: the LD50 was 9280 mg/kg. For the compound `CCC(=O)C(C)=O`, the LD50 was 3000 mg/kg. On to `CN1CCN(CC/C=C2/c3ccccc3Sc3ccc(S(=O)(=O)N(C)C)cc32)CC1`, for which the LD50 is 410 mg/kg.

Take `CCOP(=S)(OCC)SCn1nnc2ccccc2c1=O`: the LD50 was 7 mg/kg. In the case of `CCCCCCCCCCCCCO`, the LD50 was 17200 mg/kg. Take `O=C(Oc1ccccc1)c1ccccc1O`: the LD50 is 3000 mg/kg. With `COC(=O)c1c(C(F)F)nc(C(F)(F)F)c(C(=O)OC)c1CC(C)C`, the LD50 is 1420 mg/kg. As for `c1ccc2c(c1)ncc1ncsc12`, the LD50 was 350 mg/kg and 290 mg/kg. `CCCCCCCCCCCCCCCCCC(=O)OCCCC`: the LD50 was 32000 mg/kg. Turning to `CSc1nc(-c2ccc(Cl)cc2)n(-c2ccc(Cl)cc2)n1`, the LD50 was 770 mg/kg.

Consider `CCOP(=O)(OCC)SCCS(=O)(=O)CC`, for which the LD50 is 1.9 mg/kg.

Regarding `CN(C)CCNc1ncnc2ccccc12`, the LD50 was 670 mg/kg. For the compound `O=C1N=C2c3ccccc3N=CN2C1=Cc1ccc([N+](=O)[O-])cc1`, the LD50 is 1290 mg/kg. Consider `CCC1Cc2cc(CC(=O)O)ccc2O1` (centres undefined), for which the LD50 was 1300 mg/kg. As for `CC(=O)Oc1cccc(Oc2ccc(C(F)(F)F)cc2Cl)c1`, the LD50 is 2500 mg/kg. As for `CCSc1nc(=O)n(CC(C)(C)C)c(=O)n1N`, the LD50 was 3500 mg/kg. For `ClCC(Cl)(Cl)C(Cl)Cl`, the LD50 is 819 mg/kg. As to `Cc1ccc(N(C)C)cc1`, the LD50 was 1650 mg/kg.

On to `CNC(=O)Oc1ccccc1C1OCC=CCO1`, for which the LD50 was 35 mg/kg. As to `C=CCn1c(=O)[nH]c(=O)n(CC=C)c1=O`, the LD50 was 930 mg/kg. For `CCCCCCCCc1ccc(C(=O)CCN2CCCCC2)cc1`, the LD50 was 417 mg/kg. `CC(Oc1ccc(Oc2ccc(Cl)cc2Cl)cc1)C(=O)O` (centres undefined): the LD50 is 563 mg/kg. As for `COc1ccc2c(c1)c(CC(=O)NO)c(C)n2C(=O)c1ccc(Cl)cc1`, the LD50 was 78 mg/kg.

As to `CCNc1nc(NC(C)C(C)C)nc(SC)n1` (centres undefined), the LD50 was 3000 mg/kg. Regarding `Cc1c(Cl)ccc(C(C)c2ccccc2)c1C` (centres undefined), the LD50 is 2130 mg/kg.

In the case of `CC(C)NC1CCC(c2ccccc2)(c2ccccc2)CC1`, the LD50 was 623 mg/kg.
